Reference: PMC8815882, “Screening the pandemic response box identified benzimidazole carbamates, Olorofim and ravuconazole as promising drug candidates for the treatment of eumycetoma” (PLoS Neglected Tropical Diseases, 2022)
Read-outs that look alike come from different tables or passages of the source.

Test system: M. mycetomatis genome strain MM55
Experiment: CLSI M38-A2 based in vitro susceptibility screening (XTT or resazurin), growth at fixed concentration
Format: cell-based, Madurella mycetomatis
Settings: Madurella mycetomatis; for Percent fungal survival at 100 µM: read-out: Percentage survival at 100um, 100 uM A (second replicate column)
[1] = mean of replicates, read-out: Percentage survival at 25um, 25 uM mean
[2] = replicate A, read-out: Percentage survival at 25um, 25 um A
[3] = replicate B, read-out: Percentage survival at 25um, 25 uM B
[4] = replicate C, read-out: Percentage survival at 25um, 25 uM C
[5] = mean of replicates, read-out: Percentage survival at 100um, 100 uM mean
[6] = replicate 1, read-out: Percentage survival at 100um, 100 uM A
[7] = replicate 2, read-out: Percentage survival at 100um, 100 uM A
[8] = replicate 3, read-out: Percentage survival at 100um, 100 uM A
[9] = mean, read-out: Percentage survival at 25um, 25 uM mean
[10] = mean, read-out: Percentage survival at 100um, 100 uM mean
[11] = replicate (first column), read-out: Percentage survival at 100um, 100 uM A
[12] = replicate (second column), read-out: Percentage survival at 100um, 100 uM A
[13] = replicate (third column), read-out: Percentage survival at 100um, 100 uM A
[14] = mean of three replicates, read-out: Percentage survival at 25um, 25 uM mean
[15] = mean of three replicates, read-out: Percentage survival at 100um, 100 uM mean
[16] = replicate 1, read-out: Percentage survival at 100um, 100 uM A (first replicate column)
[17] = replicate 3, read-out: Percentage survival at 100um, 100 uM A (third replicate column)

Row | SMILES | activity at 25 µM [2] [%] | activity at 25 µM [3] [%] | activity at 25 µM [4] [%] | activity at 25 µM [9] [%] | activity at 100 µM [10] [%] | activity at 100 µM [11] [%] | activity at 100 µM [12] [%] | activity at 100 µM [13] [%] | activity at 25 µM [14] [%] | activity at 100 µM [15] [%] | also measured
1 | N[C@H](CCC(=O)N[C@@H](Cc1c[nH]c2ccccc12)C(=O)O)C(=O)O [MMV1581033] |  |  |  |  |  |  |  |  |  |  | activity at 25 µM (mean of replicates, MM55, read-out: Percentage survival at 25um, 25 uM mean): 91%; activity at 25 µM (replicate A, MM55, read-out: Percentage survival at 25um, 25 um A): 91.2%; activity at 25 µM (replicate B, MM55, read-out: Percentage survival at 25um, 25 uM B): 94.6%; activity at 25 µM (replicate C, MM55, read-out: Percentage survival at 25um, 25 uM C): 87.2%; activity at 100 µM (mean of replicates, MM55, read-out: Percentage survival at 100um, 100 uM mean): 66.8%; activity at 100 µM (replicate 1, MM55, read-out: Percentage survival at 100um, 100 uM A): 84.1%; activity at 100 µM (replicate 2, MM55, read-out: Percentage survival at 100um, 100 uM A): 28.6%; activity at 100 µM (replicate 3, MM55, read-out: Percentage survival at 100um, 100 uM A): 87.7%
2 | CCCCOC(=O)Nc1cc2nc(C3CCCCC3)[nH]c2cc1N(CC)CC [MMV1578842] | 97.2 | 93.7 | 73.4 |  |  |  |  |  |  |  | activity at 25 µM [1]: 88.1%; activity at 100 µM [5]: 93.8%; activity at 100 µM [6]: 93.6%; activity at 100 µM [7]: 90.8%; activity at 100 µM [8]: 96.9%
3 | CN(C)c1[nH]c(=O)ncc1F [MMV1782223] | 97 | 101 | 80.9 | 93 | 82.8 | 84 | 75.3 | 88.9 |  |  | 
4 | C[C@H](c1cccc2ccccc12)N(C)Cc1ccccc1 [MMV1782221] |  |  |  |  |  |  |  |  |  |  | activity at 25 µM (mean of three, M. mycetomatis MM55, read-out: Percentage survival at 25um, 25 uM mean): 60.5%; activity at 25 µM (replicate A, M. mycetomatis MM55, read-out: Percentage survival at 25um, 25 um A): 78.4%; activity at 25 µM (replicate B, M. mycetomatis MM55, read-out: Percentage survival at 25um, 25 uM B): 99.2%; activity at 25 µM (replicate C, M. mycetomatis MM55, read-out: Percentage survival at 25um, 25 uM C): 3.87%; activity at 100 µM (mean of three, M. mycetomatis MM55, read-out: Percentage survival at 100um, 100 uM mean): 78.8%; activity at 100 µM (replicate 1, M. mycetomatis MM55, read-out: Percentage survival at 100um, 100 uM A (first replicate column)): 56%; Percent fungal survival at 100 µM (replicate 2, M. mycetomatis MM55): 63.1%; activity at 100 µM (replicate 3, M. mycetomatis MM55, read-out: Percentage survival at 100um, 100 uM A (third replicate column)): 117%
5 | CCNC(=O)Nc1cc(-c2ccccc2)c(-c2cncc(C(=O)O)c2)cn1 [MMV1593534] | 94.2 | 90.1 | 72.5 | 85.6 | 53.4 | 4.59 | 76.9 | 78.8 |  |  | 
6 | CN(C)CCNC(=O)c1cccc2cccnc12 [MMV811071] | 90.3 | 90.7 | 71.6 |  |  |  |  |  |  |  | activity at 25 µM [1]: 84.2%; activity at 100 µM [5]: 85.2%; activity at 100 µM [6]: 79.4%; activity at 100 µM [7]: 92.5%; activity at 100 µM [8]: 83.6%
7 | CCOC(=O)/C=C/[C@H](C[C@@H]1CCNC1=O)NC(=O)[C@H](CC)n1cccc(NC(=O)c2cc(C)on2)c1=O [MMV1782112] | 76.9 | 89.6 | 110 |  |  |  |  |  | 92.1 | 68.4 | activity at 100 µM (first replicate column, read-out: Percentage survival at 100um, 100 uM A): 81.9%; activity at 100 µM (second replicate column, read-out: Percentage survival at 100um, 100 uM A): 76.6%; activity at 100 µM (third replicate column, read-out: Percentage survival at 100um, 100 uM A): 46.5%
8 | O=C(O)C(Cc1c[nH]c2ccccc12)N1C(=O)c2ccccc2C1=O (centres unmarked) [MMV452821] | 99.3 | 91 | 52.5 |  |  |  |  |  | 80.9 | 96.8 | activity at 100 µM [16]: 102%; Percent fungal survival at 100 µM (replicate 2): 95.7%; activity at 100 µM [17]: 92.9%
9 | CCCCCc1ccc(C(=O)NCCn2cc(CCCCCc3cnc(N)[nH]3)nn2)cc1 [MMV1580847] | 58 | 61.7 | 70 |  |  |  |  |  | 63.2 | 64.8 | activity at 100 µM [16]: 67%; Percent fungal survival at 100 µM (replicate 2): 95.2%; activity at 100 µM [17]: 32.1%
10 | O=C(NC(=O)N1CCCc2ccccc21)c1ccc(Cl)cc1Cl [MMV1782218] | 84.5 | 82 | 66.6 | 77.7 | 59.4 | 65.3 | 55.7 | 57.2 |  |  | 
